Results reported in PMC12445692 (2025).

What was measured:
[1] = system: MYC G4 (Myc2345_T23) (DNA, G4) TGAGGGTGGGTAGGGTGGGTAA; assay: ESI mass spectrometry; details: K+ (20 mM potassium phosphate, 80 mM KCl); pH 7.4, 100 μM DNA
[2] = system: Myc2345 (DNA, G4) TGAGGGTGGGTAGGGTGGGGAA; assay: ESI mass spectrometry; details: K+ (20 mM potassium phosphate, 80 mM KCl); pH 7.4, 100 μM DNA
[3] = system: MYC G4 (Myc2345_T23) (DNA, G4) TGAGGGTGGGTAGGGTGGGTAA; assay: NMR solution structure; details: K+ (2 mM potassium phosphate, 8 mM KCl); pH 7.4, 298 K
[4] = system: Myc2345 (DNA, G4) TGAGGGTGGGTAGGGTGGGGAA; assay: 1H NMR titration and 15N HSQC
[5] = system: MYC G4 (Myc2345_T23) (DNA, G4) TGAGGGTGGGTAGGGTGGGTAA; assay: differential scanning calorimetry; details: 100 μM DNA, DNA:ligand 1:4 (400 μM BTO-28), 1.0°C/min
[6] = system: Myc2345 (DNA, G4) TGAGGGTGGGTAGGGTGGGGAA; assay: differential scanning calorimetry; details: 100 μM DNA, DNA:ligand 1:4 (400 μM BTO-28), 1.0°C/min
[7] = system: NHE III1 (DNA, G4) TGGGGAGGGTGGGGAGGGTGGGGAAGG; assay: differential scanning calorimetry; details: 100 μM DNA, DNA:ligand 1:4 (400 μM BTO-28), 1.0°C/min
[8] = system: dsDNA (DNA, duplex) CAATCGGATCGAATTCGATCCGATTG; assay: differential scanning calorimetry; details: 100 μM DNA, DNA:ligand 1:4 (400 μM BTO-28), 1.0°C/min
[9] = system: 5'-Cy5 MYC G4 (DNA, G4) TGAGGGTGGGTAGGGTGGGTAA; assay: fluorescence polarization, single-site fit; details: K+ (20 mM potassium phosphate, 80 mM KCl); pH 7.4, room temperature, 20 nM DNA; high-affinity site; Cy5 end not given, 5' inferred
[10] = system: 3'-Cy5 MYC G4 (DNA, G4) TGAGGGTGGGTAGGGTGGGTAA; assay: fluorescence polarization, single-site fit; details: K+ (20 mM potassium phosphate, 80 mM KCl); pH 7.4, room temperature, 20 nM DNA; weaker than 5' end
[11] = system: 5'-Cy5 dsDNA (DNA, duplex) CAATCGGATCGAATTCGATCCGATTG; assay: fluorescence polarization, single-site fit; details: K+ (20 mM potassium phosphate, 80 mM KCl); pH 7.4, room temperature, 20 nM DNA; ligand 0-2 μM
[12] = system: 5'-Cy5 KRAS (DNA, G4) AGGGCGGTGTGGGAAGAGGGAAGAGGGGGAGGCAG; assay: fluorescence polarization, single-site fit; details: K+ (20 mM potassium phosphate, 80 mM KCl); pH 7.4, room temperature, 20 nM DNA; ligand 0-2 μM
[13] = system: 5'-Cy5 RET (DNA, G4) GGGGCGGGGCGGGGCGGGGG; assay: fluorescence polarization, single-site fit; details: K+ (20 mM potassium phosphate, 80 mM KCl); pH 7.4, room temperature, 20 nM DNA; ligand 0-2 μM
[14] = system: 5'-Cy5 hTERT (DNA, G4) GGGTTAGGGTTAGGGTTAGGGTTAGGGTTAG; assay: fluorescence polarization, single-site fit; details: K+ (20 mM potassium phosphate, 80 mM KCl); pH 7.4, room temperature, 20 nM DNA; ligand 0-2 μM
[15] = system: 5'-Cy5 KIT (DNA, G4) GGGAGGGAGGGCGCTGGGAGGAGGG; assay: fluorescence polarization, single-site fit; details: K+ (20 mM potassium phosphate, 80 mM KCl); pH 7.4, room temperature, 20 nM DNA; ligand 0-2 μM

- binding [1]: yes
- binding [2]: yes
- binding [3]: yes
- binding [4]: yes
- ΔTm [5]: 25.6 °C
- ΔTm [6]: 26.0 °C
- binding [7]: yes
- ΔTm [8]: -4.3 °C
- KD [9]: 0.0068 µM
- KD [10]: 0.0898 ± 0.00507 µM
- KD [11]: > 2 µM
- KD [12]: 0.67 ± 0.03509 µM
- KD [13]: > 2 µM
- KD [14]: > 2 µM
- KD [15]: 1.246 ± 0.07791 µM
Structure (SMILES): Cc1cc(/C=C2\Sc3ccccc3N2CCCN2CCCC2)c2ccccc2[n+]1C
